Laboratory results: paper PMC6753081 (Nature Communications, 2019)

T1: FKBP12 (C. albicans) (Candida albicans, UniProt P28870)
T1 construct: gene RBP1; E. coli BL21(DE3), N-terminal 6xHis cut by thrombin, 15N/13C labelled, free FKBP12
T1 sequence (P28870 1-124): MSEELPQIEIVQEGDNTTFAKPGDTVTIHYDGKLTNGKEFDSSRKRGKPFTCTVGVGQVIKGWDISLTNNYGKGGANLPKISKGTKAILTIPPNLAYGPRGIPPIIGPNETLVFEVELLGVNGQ


Columns and labels:
[1] = biological target: T1, FKBP12 (C. albicans); assay type: binding; details: pH […] °C, […] phosphate, […] NaCl
[2] = biological target: T2, A. fumigatus CN/FKBP12 complex (CnA/CnB/AfFKBP12) (Aspergillus fumigatus, UniProt Q4WDF2+Q4WLV6+Q4WUR1); details: ternary complex CnA/CnB-FK506-FKBP12; at the FKBP12-BBH/CnB interface, not the phosphatase active site
T2 construct: gene cnaA

[3] = biological target: T3, C. neoformans calcineurin catalytic subunit (CnA), residues 34-402 (C. neoformans, UniProt O42773 34-402); test: crystal structure; details: both partners purified
T3 construct: also called calcineurin A
T3 sequence (O42773 34-402): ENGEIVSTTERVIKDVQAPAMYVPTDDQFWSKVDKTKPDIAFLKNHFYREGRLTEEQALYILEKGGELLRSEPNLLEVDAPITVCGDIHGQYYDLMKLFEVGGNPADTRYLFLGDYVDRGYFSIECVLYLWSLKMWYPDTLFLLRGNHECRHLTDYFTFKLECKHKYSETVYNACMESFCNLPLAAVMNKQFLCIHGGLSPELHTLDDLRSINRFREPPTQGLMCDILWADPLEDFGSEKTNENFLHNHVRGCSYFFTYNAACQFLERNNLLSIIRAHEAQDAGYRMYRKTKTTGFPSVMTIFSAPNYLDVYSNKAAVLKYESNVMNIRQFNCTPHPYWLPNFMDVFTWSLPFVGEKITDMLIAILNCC

T2 sequence (Q4WDF2 entry or part of it): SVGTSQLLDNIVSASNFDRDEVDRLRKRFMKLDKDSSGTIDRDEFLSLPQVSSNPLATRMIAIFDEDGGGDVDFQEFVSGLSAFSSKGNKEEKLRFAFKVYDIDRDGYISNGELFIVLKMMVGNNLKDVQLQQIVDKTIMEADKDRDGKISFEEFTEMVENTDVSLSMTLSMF
T2 sequence (Q4WUR1 2-370): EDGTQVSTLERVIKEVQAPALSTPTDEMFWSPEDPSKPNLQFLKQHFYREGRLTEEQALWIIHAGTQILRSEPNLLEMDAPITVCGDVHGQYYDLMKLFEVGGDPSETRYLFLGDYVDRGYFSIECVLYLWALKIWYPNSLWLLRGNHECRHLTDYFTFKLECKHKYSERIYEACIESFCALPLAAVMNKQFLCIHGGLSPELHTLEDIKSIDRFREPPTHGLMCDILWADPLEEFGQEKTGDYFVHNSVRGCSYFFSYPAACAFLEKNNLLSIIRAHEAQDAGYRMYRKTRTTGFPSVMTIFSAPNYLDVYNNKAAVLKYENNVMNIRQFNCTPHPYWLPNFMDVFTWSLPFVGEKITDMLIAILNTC
T2 sequence (Q4WLV6 2-112): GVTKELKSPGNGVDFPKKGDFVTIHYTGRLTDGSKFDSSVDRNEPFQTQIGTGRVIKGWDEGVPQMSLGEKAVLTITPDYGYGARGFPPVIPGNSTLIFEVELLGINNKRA

Molecule | NMR resonance assignment of apo and FK506-bound state [1] | X-ray crystal structure, 2.50 Å [2] | binding result [3]
C=CC[C@@H]1/C=C(\C)C[C@H](C)C[C@H](OC)[C@H]2O[C@@](O)(C(=O)C(=O)N3CCCC[C@H]3C(=O)O[C@H](/C(C)=C/[C@@H]3CC[C@@H](O)[C@H](OC)C3)[C@H](C)[C@@H](O)CC1=O)[C@H](C)C[C@@H]2OC [FK506] | A. fumigatus and C. albicans were determined in both the apo and FK506 bound states | A single copy of the complex was placed per asymmetric unit (PDB ID: 6TZ7) | 
C. neoformans calcineurin regulatory subunit (CnB), residues 1-175 (natural protein, also called calcineurin B) MGAAESSMFNSLEKNSNFSGPELMRLKKRFMKLDKDGSGSIDKDEFLQIPQIANNPLAHRMIAIFDEDGSGTVDFQEFVGGLSAFSSKGGRDEKLRFAFKVYDMDRDGYISNGELYLVLKQMVGNNLKDQQLQQIVDKTIMEADKDGDGKLSFEEFTQMVASTDIVKQMTLEDLF |  |  | binds
